Assay results as given in paper PMC11054638, “Transport of Non-Steroidal Anti-Inflammatory Drugs across an Oral Mucosa Epithelium In Vitro Model” (Pharmaceutics, 2024).
Where two headings read alike, the source gives them in different places.

What was measured:
TR146 cell layers [1] = test: TEER after 48 h inflammation study; type: cell-based, human; conditions: 48 h treatment; ibuprofen 100 µM; cytokines 100 ng/mL each
[2] = tested on: TR146 oral mucosa in vitro model; test: High-throughput (96.96) qPCR chip, mRNA expression after inflammation studies; type: cell-based, human; conditions: 48 h, normalised to control; mean ± SD
Procedure: ThinCerts® were seeded with cells as described above. […] Three days before the experiments, cell layers and blanks were washed twice on the basolateral compartment with 900 µL cultivation media (DMEM supplemented with 10% Fetal Calf Serum and 1% Penicillin/Streptomycin) to remove anti-inflammatory hydrocortisone residues (a component of media supplement HKGS) and were further cultivated in cultivation media.
Prior to treating cells with prepared DMEM solutions, TEER was measured in cultivation media DMEM supplemented with 1% Penicillin/Streptomycin and 10% Fetal Calf Serum. Subsequently, cell layers and blanks were washed with DMEM (without supplements) twice on the apical and basolateral compartment, followed by TEER measurements in DMEM. Media of cells were replaced with previously prepared DMEM solutions. Control media was applied on the blanks. […] Subsequently, 10 µM carboxyfluorescein was added to the apical DMEM solutions and incubated in the incubator at 37 °C for 2 h. Media were immediately collected and measured for the RFU content using the EnSpire as described above. Afterwards, media were stored at −20 °C until further usage. Two cell-grown ThinCerts^TM of each treatment were pooled as one sample with 350 µL lysis buffer supplemented with 1% ß-mercaptoethanol and stored at −80 °C for RNA isolation.
In short, RNA samples collected at the 48-hour timepoint of the inflammation studies and generated by pooling two cell-grown inserts were tested as duplicates on the expression of 95 markers and 1 negative control (H2O). The mRNA samples were amplified with three different primer pools containing 54 primers (PPIA, ACTB, GAPDH, B2M, CLDN1, CLDN2, CLDN3, CLDN4, CLDN5, CLDN6, CLDN7, CLDN8, CLDN9, CLDN10tva, […]
MARVELD2, ZO-1, ZO-2, ZO-3, SLC2A1, SLC7A1, SLC7A5, SLC16A1, ABCB1, ABCC1, ABCC2, ABCC3, ABCC4, ABCC5, ABCG2, INSR, LRP1, TFRC, VEGF-A, CDH5, VWF), 32 primers (CK1, CK4, […]
Quality control of generated data excluded Ct measured outside of the marker’s melting temperature ± 1.5 °C. To calculate the relative expression for each marker, the relative quantitative value was first calculated by subtracting the mean Ct values of control samples from the Ct values of treated samples and potentiating the resulting ΔCt by the power of 2 (=2ΔCt). The geometric mean of housekeeping genes […]
the relative quantitative value of each marker was divided by the calculated geometric mean of housekeeping genes of the respective sample. Subsequent expression values of treated samples were […]
Tested RNA samples were collected after three independent experiments with 4 treatment groups (Control, INF, INF+Ibu, Ibu) per experiment (N=12). Statistical analysis was performed as two-way ANOVA with post hoc Holm–Sidak test with *p<0.05, **p<0.01, ***p<0.001 and […]

TR146 cell layers [3] = tested on: TR146 cell layers
in vitro = conditions: human, not told, permeability coefficient, without probenecid

## CC(C)Cc1ccc(C(C)C(=O)O)cc1 (stereo not shown) [ibuprofen]
TR146 cell layers [1]
  TEER values after 48 h: 69.65 ± 9.10 Ω × cm^2
[2]
  ABCB1 mRNA expression: 1.01± 0.04 n-fold
  ABCC1 mRNA expression: 1.26± 0.46 n-fold
  ABCC2 mRNA expression: 0.7± 0.65 n-fold
  ABCC3 mRNA expression: 0.97± 1.21 n-fold
  ABCC4 mRNA expression: 1.46± 0.5 n-fold
  ABCC5 mRNA expression: 0.69± 0.34 n-fold
  ABCG2 mRNA expression: 0.87± 1.23 n-fold
  AMY mRNA expression: 0.38± 0.43 n-fold
  AQP1 mRNA expression: 0.34± 0.19 n-fold
  AQP3 mRNA expression: 0.76± 0.67 n-fold
  AQP5 mRNA expression: 1.57± 1.16 n-fold
  AQP9 mRNA expression: 0.93± 0.04 n-fold
  AQP10 mRNA expression: 1.38± 0.72 n-fold
  AQP11 mRNA expression: 0.66 ± 0.07 n-fold
  CDH1 mRNA expression: 0.93± 0.62 n-fold
  CK1 mRNA expression: 11.98± 16.81 n-fold
  CK4 mRNA expression: 1.53± 1.73 n-fold
  CK5 mRNA expression: 0.27± 0.28 n-fold
  CK7 mRNA expression: 3.07± 2.11 n-fold
  CK8 mRNA expression: 0.92± 0.68 n-fold
  CK10 mRNA expression: 1.63± 2.38 n-fold
  CK13tv1 mRNA expression: 1.34± 0.93 n-fold
  CK14 mRNA expression: 1.53± 0.93 n-fold
  CK18 mRNA expression: 0.79± 0.85 n-fold
  CK19 mRNA expression: 1.53± 0.26 n-fold
  CLDN1 mRNA expression: 0.52± 0.71 n-fold
  CLDN2 mRNA expression: 5.02 n-fold
  CLDN3 mRNA expression: 1.95 n-fold
  CLDN4 mRNA expression: 0.74± 1.1 n-fold
  CLDN5 mRNA expression: 7.17± 10.76 n-fold
  CLDN6 mRNA expression: 1.83± 0.78 n-fold
  CLDN7 mRNA expression: 0.51± 0.72 n-fold
  CLDN8 mRNA expression: 0.49± 0.46 n-fold
  CLDN9 mRNA expression: 1.07± 1.46 n-fold
  CLDN10tva mRNA expression: 1.49± 2.21 n-fold
  CLDN11 mRNA expression: 0.6± 0.1 n-fold
  CLDN12tv1 mRNA expression: 0.73± 0.3 n-fold
  CLDN12tv2 mRNA expression: 0.47± 0.35 n-fold
  CLDN12tv3 mRNA expression: 0.79± 0.25 n-fold
  CLDN14 mRNA expression: 1.51 n-fold
  CLDN15 mRNA expression: 0.98± 0.96 n-fold
  CLDN16 mRNA expression: 1.79± 1.1 n-fold
  CLDN17 mRNA expression: 1.66± 1.15 n-fold
  CLDN18tv2a mRNA expression: 6.08± 8.62 n-fold
  CLDN21 mRNA expression: 1.29 n-fold
  CLDN22 mRNA expression: 0.4± 0.53 n-fold
  CLDN24 mRNA expression: 0.62 n-fold
  CLDN25tv1-4 mRNA expression: 0.65± 0.77 n-fold
  CLDN25tv7 mRNA expression: 1.34± 0.38 n-fold
  CLDN27 mRNA expression: 0.26 n-fold
  DSG3 mRNA expression: 0.83± 0.85 n-fold
  INSR mRNA expression: 0.52± 0.39 n-fold
  JAM1 mRNA expression: 0.5± 0.67 n-fold
  JAM2 mRNA expression: 0.55 n-fold
  LOR mRNA expression: 2.69± 2.89 n-fold
  LRP1 mRNA expression: 0.68± 0.36 n-fold
  MARVELD2 mRNA expression: 2.92± 1.97 n-fold
  MFSD2A mRNA expression: 0.85± 0.6 n-fold
  MUC1A mRNA expression: 0.53± 0.42 n-fold
  MUC1B mRNA expression: 0.81± 0.36 n-fold
  MUC3A mRNA expression: 2.34± 2.52 n-fold
  MUC5AC mRNA expression: 0.76± 0.17 n-fold
  MUC15tv2 mRNA expression: 0.46± 0.21 n-fold
  MUC18 mRNA expression: 0.89± 0.56 n-fold
  MUC20 mRNA expression: 1.43± 0.61 n-fold
  OCLN mRNA expression: 1.16± 1.05 n-fold
  PECAM1 mRNA expression: 0.77 n-fold
  SLC2A1 mRNA expression: 0.4± 0.26 n-fold
  SLC7A1 mRNA expression: 0.54± 0.49 n-fold
  SLC7A5 mRNA expression: 0.56± 0.91 n-fold
  SLC16A1 mRNA expression: 0.32± 0.48 n-fold
  TFRC mRNA expression: 0.79± 0.87 n-fold
  VEGF-A mRNA expression: 0.5± 0.27 n-fold
  VIM mRNA expression: 0.56± 0.52 n-fold
  VWF mRNA expression: 1.28 n-fold
  ZO-1 mRNA expression: 0.91± 0.81 n-fold
  ZO-2 mRNA expression: 1.26± 0.5 n-fold
  ZO-3 mRNA expression: 0.51± 0.84 n-fold
TR146 cell layers [3]; cells treated with cytokines
  regulation of permeability with or without probenecid: no distinct regulation
TR146 cell layers [3]; cells treated with ibuprofen previously
  higher permeability by addition of probenecid: 52.64%
TR146 cell layers [3]; control group
  higher permeability by addition of probenecid: 42.46%
In vitro; cell layers pre-treated with cytokines 48 h, 4 h transport
  Papp A→B at 4 h: 33.4 ×10⁻⁶ cm/s
In vitro; cell layers pre-treated with cytokines plus ibuprofen 48 h, 4 h transport
  Papp A→B at 4 h: 35.1 ×10⁻⁶ cm/s
In vitro; control cell layers, 4 h transport after 48 h
  Papp A→B at 4 h: 24 ×10⁻⁶ cm/s
